Patent publication US20100285146A1, “PEPTIDES AND METHODS FOR THE TREATMENT OF SYSTEMIC LUPUS ERYTHEMATOSUS” (priority 2007, published 2010)
No end group written: not given here.

Key:
[1] = test system: C72 murine anti-DNA antibody; experiment: Competitive inhibition of the binding of C72 to 5200; conditions: after incubation of C72 with the inhibiting agent
Method: The binding of C72 to 5200 was tested before and after incubation with 5200, R38, R18, Heparin, DNA and DNase. […] The percent inhibition is the percent reduction of the O.D. after incubation with the inhibiting agent.

[2] = test system: MRL/1pr/1pr urine antibodies; experiment: Binding of murine urinary immunoglobulins, MRL/1pr/1pr urine; parameters: species or system mice; conditions: for Binding of murine urinary immunoglobulins to antigen: pooled urine of MRL/1pr/1pr mice
Method: (§1) Wells were coated with 10 μg/ml of the peptides, blocked with 1% BSA (bovine serum albumin) in PBS (pH 7.4), reacted with appropriately diluted plasma or monoclonal antibodies, incubated with anti-human or anti-mouse immunoglobulin enzyme conjugated to alkaline phosphatase and detected by addition of substrate (Sigma 100 Phosphatase Substrate Tablets) and color development using an Organon Teknika Microwell System spectrometer at wavelength of 405 nm.
(§2) Thus, pooled urine from at least 5 mice (either MRL/1pr/1pr or control mice, e.g. BALB/c) was added to wells coated with R38′ (5200), R18 or DNA as described above and bound 5200 assayed by ELISA.
(§3) Each group is comprised of pooled urine.

[3] = test system: BALB/c urinary immunoglobulins; experiment: Binding of murine urinary immunoglobulins, BALB/c control urine; conditions: pooled urine of BALB/c control mice
Method: as §1, §2, §3

[4] = test system: C72 murine anti-DNA antibody; experiment: Anti-peptide direct binding ELISA with C72; conditions: for C72 Binding: direct binding ELISA, footnote: O.D. after one (1) hour
Method: as §1
(§4) The interaction of the C72 murine anti-DNA antibody with laminin peptides was analyzed by ELISA as described above. The C72 conditioned medium was diluted in PBS in various dilutions.
(§5) The peptides of the present invention were tested for their ability to bind directly with C72 murine anti-DNA antibodies and B3 human anti-DNA antibodies according to the method described hereinabove.

[5] = target: 5300 peptide, human R38 (human); experiment: direct binding ELISA, peptide-coated wells, read after two hours
Sequence of 5300 peptide, human R38 (human) (peptide, as listed by the source): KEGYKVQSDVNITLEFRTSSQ

[6] = target: 5200 peptide (R38′), mouse R38 analog; experiment: as above
Sequence of 5200 peptide (R38′), mouse R38 analog (peptide, as listed by the source): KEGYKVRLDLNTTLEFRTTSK

[7] = target: 5102 peptide (Res. 6-17 of 5100) (mouse); experiment: as above
[8] = target: R38 peptide (5100), mouse R38 (mouse); experiment: as above
[9] = target: 5101 peptide (Res. 1-16 of 5100) (mouse); experiment: as above
[10] = test system: MRL/1pr/1pr mice; experiment: Clinical course of murine SLE (survival, renal histology); type: in vivo; conditions: for renal histology by light microscopy: two mice sacrificed after 5 months, controls severe diffuse proliferative glomerulonephritis
Method: To test whether R38 peptides can affect the course of SLE we have tested their effect on MRL/1pr/1pr mice disease. 60 μg of 5200 (R38′ alone or in peptide combinations, 30 μg of each) in 0.1 ml PBS, was injected i.p. to 6 week old female MRL/1pr/1pr mice once a week for 16 weeks and the mice were evaluated for survival (FIG. 8), and for renal histology.
50 μg of 5100 (R38) or 5300 (human R38) in 0.1 ml PBS, was injected i.p. to 6 week old MRL/1pr/1pr mice three times a week and the mice were evaluated for survival (FIG. 9), and for renal histology. Control mice received 0.1 ml phosphate buffer solution. Each test and control group contained 12-15 mice.
The survival of MRL/1pr/1pr mice treated with 5100, 5200 or 5300 was compared to that of PBS treated mice. […] In FIGS. 8 and 9 the time in days shown on the x axis relates to the age of the mice. Two mice in each group were sacrificed after 5 months and their kidneys evaluated by light microscopy.

[11] = target: C72 anti-DNA antibody; experiment: Competitive inhibition of C72 binding to R38 (5100); parameters: species or system murine; conditions: concentration of competitive inhibitor giving 50% inhibition, ELISA
Text: A competitive inhibition study compared how each of the peptides competes with R38 (5100) for binding to the C72 anti-DNA antibody. Conducted according to the methods described hereinabove, the results of the study are disclosed in Table 4 below and are further elucidated by reference to FIG. 10.

[12] = test system: urine antibodies of lupus patients; experiment: Urine anti-peptide antibody ELISA in patients; type: binding, human
[13] = test system: human monoclonal anti-DNA antibody DIL 6; experiment: Anti-peptide direct binding ELISA with DIL6
Method: as §1
(§6) The human monoclonal anti-DNA antibodies DIL 6 and B3 were derived from lupus patients by the hybridoma technique. […] In FIGS. 3 and 4, the peptides are referred to as denoted above or as follows; AS30 is R27, AS19 is R35, AS35 is R26, AS17 is R28 and AS6 is R18.

[14] = test system: B3 human anti-DNA antibodies; experiment: Anti-peptide direct binding ELISA with B3; conditions: for B3 Binding: direct binding ELISA, footnote: O.D. after two (2) hours
Method: as §1, §6, §5

[15] = test system: anti-HEL Hy5 control murine antibody; experiment: Direct binding ELISA with control murine antibody; conditions: data not shown
Method: as §1, §4

[16] = test system: anti-R38 antibodies in human plasma; experiment: Affinity absorption on R38 column, human plasma samples; type: binding; conditions: for Binding to R38 (O.D.), Original sample: before column; for Binding to R38 (O.D.), After immunoabsorption: flow-through of R38 column
Method: (§7) The R38 peptide was dissolved in the coupling buffer (0.2M NaHCO3, 0.5M NaCl, pH 8.3) in a concentration of 1 mg/ml in 5 ml coupling buffer. A 5 ml N-hydroxysuccinimide (NHS)-activated Sepharose™ High Performance Column (Pharmacia 17-0717-01) is used. The isopropanol in the column was washed out from the column with 30 ml of cold (4° C.) 1 mM HCl and 5 ml of the peptide solution was then injected onto the column with a syringe (2.5 ml/minute). The column was sealed and stood for 30 minutes at room temperature. The column was then washed with 30 ml Buffer A (0.5 M ethanolamine, 0.5 M NaCl, pH 8.3) and 30 ml Buffer B (0.5 M acetate, 0.5 M NaCl, pH 4) consecutively three times, and then with neutral pH buffer (0.05 M Na2HPO4 and 0.1% NaN3).
(§8) The column was washed with 15 ml PBS (phosphate buffered saline), followed by 15 ml elution buffer (0.1 M glycine HCl) and then 50 ml PBS. The C72 antibody or the patients' plasma samples were filtered through a 0.45 microm filter. The samples were applied onto the column by a fitted syringe at a rate of 2.5 ml/min. The column was then washed with 5 ml PBS and the flow-through was applied to the column again. The binding of the samples (original and flow-through) to R38 was tested by the anti-R38 ELISA test.
(§9) In the instant example, the mouse C72 and the SLE patients' plasma were applied to the R38 column. Their anti-R38 binding was evaluated by ELISA in the original samples and in the flow-through of the column.

[17] = test system: C72 antibody; experiment: Affinity absorption on R38 column, C72 sample; type: binding, mouse
Method: as §7
as §8, with “The binding of the samples (original and flow-through) to R38 was tested by the anti-R38 ELISA test.” left out
as §9

[18] = test system: urine antibodies of lupus patients; experiment: Urine anti-peptide antibody ELISA in patients; type: binding, human; conditions: Example 5
Method: as §1
Activity of the disease was evaluated also by accepted clinical and serological parameters (Lockshin M. D. et al. Am. J. Med (1984) 77 893-898) and their correlation with anti-R38 levels was compared. 103 urine samples of 37 SLE patients were tested for anti-R38 activity by ELISA as described above. 23 of the samples were from patients without renal disease and 80 samples from patients with renal disease. A further 12 samples from patients with renal disease not related to SLE were also included.

DNA
inhibition of the binding of C72 to 5200 (FIG. 2) [1]: inhibition
Binding of murine urinary immunoglobulins to antigen [2]: U.D.
Binding of murine urinary immunoglobulins to antigen [3]: U.D.

RPVRHAQCRVCDGNSTNPRERH [Peptide R18, peptide from the N-terminal of mouse laminin alpha chain, residues 42-63, reference compound]
Binding of murine urinary immunoglobulins to antigen [2]: U.D.
Binding of murine urinary immunoglobulins to antigen [3]: U.D.
C72 Binding [4]: 0.01 O.D.

B3 human monoclonal anti-DNA antibody
O.D. in a direct binding ELISA [5]: 0.03 O.D.
O.D. in a direct binding ELISA [6]: 0.25 O.D.
O.D. in a direct binding ELISA [7]: 0.02 O.D.
O.D. in a direct binding ELISA [8]: 0.9 O.D.
O.D. in a direct binding ELISA [9]: 0.1 O.D.

heparin
inhibition of the binding of C72 to 5200 (FIG. 2) [1]: inhibition

CC(C)C[C@H](NC(=O)[C@H](CC(=O)O)NC(=O)[C@H](CC(C)C)NC(=O)[C@H](CCCNC(=N)N)NC(=O)[C@@H](NC(=O)[C@H](CCCCN)NC(=O)[C@H](Cc1ccc(O)cc1)NC(=O)CNC(=O)[C@H](CCC(=O)O)NC(=O)[C@@H](N)CCCCN)C(C)C)C(=O)N[C@@H](CC(N)=O)C(=O)N[C@H](C(=O)N[C@H](C(=O)N[C@@H](CC(C)C)C(=O)N[C@@H](CCC(=O)O)C(=O)N[C@@H](Cc1ccccc1)C(=O)N[C@@H](CCCNC(=N)N)C(=O)N[C@H](C(=O)N[C@H](C(=O)N[C@@H](CO)C(=O)N[C@@H](CCCCN)C(=O)O)[C@@H](C)O)[C@@H](C)O)[C@@H](C)O)[C@@H](C)O (stereo in doubt) [Peptide 5200]
inhibition of the binding of C72 to 5200 (FIG. 2) [1]: inhibition
survival versus PBS control mice (FIG. 8) ([10]; 60 μg i.p. once a week for 16 weeks, 6 week old female mice): significantly higher
renal histology by light microscopy ([10]; 60 μg i.p. once a week): mild proliferative changes with no crescents and no sclerosis
50% Inhibition of C72 binding to mouse R38 (5100) [11]: 10 µg/mL
interaction of MRL/1pr/1pr urine antibodies with peptide ([2]; direct binding ELISA): specific binding
Binding of murine urinary immunoglobulins to antigen [2]: 0.26(*) O.D. at 405 nm
Urine anti-5200 O.D. (Mean + S.E.) ([12]; Example 6, renal disease absent, 46 samples): 0.05 ± 0.005 O.D.
Urine anti-5200 O.D. (Mean + S.E.) ([12]; Example 6, renal disease present, 132 samples, p < 0.001): 0.335 ± 0.035 O.D.
Urine anti-5200 O.D. (Mean + S.E.) ([12]; Example 8, renal disease absent, 6 samples): 0.052 ± 0.03 O.D.
Urine anti-5200 O.D. (Mean + S.E.) ([12]; Example 8, renal disease present, 46 samples): 0.431 ± 0.09 O.D.
binding of DIL 6 to laminin peptides (FIGS. 3 and 4) [13]: bind
binding of B3 to laminin peptides (FIGS. 3 and 4) [14]: bind
B3 Binding [14]: 0.25 O.D.
Binding of murine urinary immunoglobulins to antigen [3]: U.D.
binding of control antibody anti-HEL Hy5 [15]: did not bind
binding of C72 murine anti-DNA antibody to laminin peptides (FIG. 1) ([4]; ELISA, C72 conditioned medium in various dilutions): binding
C72 Binding [4]: 1.8 O.D.

KEGYKVRLDLNITLEFRTTSK [Peptide 5100]
inhibition of the binding of C72 to 5200 (FIG. 2) [1]: inhibition
survival versus PBS control mice (FIG. 9) ([10]; 50 μg i.p. three times a week, 6 week old mice): significantly higher
renal histology by light microscopy ([10]; 50 μg i.p. three times a week): mild proliferative changes with no crescents and no sclerosis
50% Inhibition of C72 binding to mouse R38 (5100) [11]: 10 µg/mL
Urine anti-5100 O.D. (Mean + S.E.) ([12]; Example 7, renal disease absent, 6 samples): 0.058 ± 0.006 O.D.
Urine anti-5100 O.D. (Mean + S.E.) ([12]; Example 7, renal disease present, 39 samples, p < 0.03): 0.376 ± 0.05 O.D.
B3 Binding [14]: 0.9 O.D.
Binding to R38 (O.D.), Original sample ([16]; Healthy donor's plasma): 0.26 O.D.
Binding to R38 (O.D.), After immunoabsorption ([16]; Healthy donor's plasma): 0.06 O.D.
Binding to R38 (O.D.), Original sample ([16]; SLE patient 1 plasma): 1.5 O.D.
Binding to R38 (O.D.), After immunoabsorption ([16]; SLE patient 1 plasma): 0.6 O.D.
Binding to R38 (O.D.), Original sample ([16]; SLE patient 2 plasma): 2.3 O.D.
Binding to R38 (O.D.), After immunoabsorption ([16]; SLE patient 2 plasma): 1.6 O.D.
Binding to R38 (O.D.), Original sample ([17]; sample C72, before column): 1.96 O.D.
Binding to R38 (O.D.), After immunoabsorption ([17]; sample C72, flow-through of R38 column): 0.02 O.D.
Urine anti-R38 O.D. (Mean + S.E.) ([18]; SLE absent, renal disease present, 12 samples): 0.07 ± 0.01 O.D.
Urine anti-R38 O.D. (Mean + S.E.) ([18]; SLE present, renal disease absent, 23 samples): 0.035 ± 0.003 O.D.
Urine anti-R38 O.D. (Mean + S.E.) ([18]; SLE present, renal disease present, 80 samples, p < 0.001): 0.229 ± 0.03 O.D.
C72 Binding [4]: 2.57 O.D.

KAGYKVRLALNITLAFRTTSK [Peptide 5108]
50% Inhibition of C72 binding to mouse R38 (5100) [11]: 2 µg/mL
Urine anti-5108 O.D. (Mean + S.E.) ([12]; Example 9, renal disease absent, 2 samples): 0.064 ± 0.05 O.D.
Urine anti-5108 O.D. (Mean + S.E.) ([12]; Example 9, renal disease present, 22 samples): 0.672 ± 0.1 O.D.
B3 Binding [14]: 1.93 O.D.
C72 Binding [4]: 2.75 O.D.

KEGYKVQSDLNITLEFRTSSQ [Peptide 5300]
50% Inhibition of C72 binding to mouse R38 (5100) [11]: 85 µg/mL
B3 Binding [14]: 0.03 O.D.
C72 Binding [4]: 0.03 O.D.
